Where a name gives a salt, the structure may show the parent alone.
Tests used:
Nitrosomonas spp. = experiment: Nitrification of ammonium in soil incubated at 25° C. (ammonium recovery, nitrate accumulation); details: soil 25° C.; for Concentration of nitrate nitrogen / Recovery of Ammonium Nitrogen: 200 ppm N; for Effectiveness as nitrification inhibitor, in words: 20 weeks study
Outline: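 Silt loam soil (100 g, low residual N) at 50% water saturation given ammonium sulfate at 200 ppm N plus test compound at 0.10–0.50 ppm, duplicates, incubated 25 °C for up to 20 weeks. Inorganic N extracted with 2M KCl; ammonium, nitrite and nitrate measured by steam distillation.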

corn (Pioneer 3352) = experiment: Field evaluation: yield of corn, sandy loam plots; assay type: in vivo; details: for AVERAGE YIELD 4-REPLICATES: sandy loam
Excerpt: Field Evaluation: Field evaluations are based on the N content of corn leaf tissue and grain yield utilizing two soil types. Replicate (4X) field plots are established at two different locations, one having (I) silt loam soil and one (II) with sandy loam soil. These soils had been previously cropped to non-fertilized corn to reduce the level of residual N. Maduramicin monoammonium salt is applied (0.25, 0.125, 0.07 ppm) with NH3 (84 or 168 kg N/ha) through a "downstream" by an injection system into silt loam plots. Nitrapyrin (0.25 ppm=0.56 kg a.i./ha), nitrogen checks, benzyl alcohol (1.16L/ha) (BA) and a O nitrogen check are included for comparison. Individual replicate plot sizes are 3.04M×22.8M (4, 76-cm corn rows×22.8M long) Anhydrous ammonia are injected on 76-cm centers.
Plots are then planted with corn the day following treatment. Dekalb T2000 is planted 10 May on silt loam plots and Pioneer 3352 is planted 11 May in sandy loam plots.
Corn ear leaf tissues collected at silking on silt loam plots or 60 days post silking (on silt loam and sandy loam plots) are collected from each plot and assayed for total N (AOAC procedures). Grain yields are determined by harvesting the two center rows×15.2 m of each plot.

CO[C@@H]1[C@@H](OC)[C@H](C)[C@@](O)(CC(=O)O)O[C@H]1[C@H](C)[C@H]1O[C@@]2(CC[C@@](C)([C@H]3CC[C@@](C)([C@@H]4O[C@@H]([C@H]5O[C@](C)(O)[C@H](C)C[C@@H]5C)C[C@@H]4O[C@@H]4C[C@H](OC)[C@@H](OC)[C@H](C)O4)O3)O2)C[C@H](O)[C@H]1C [Maduramicin monoammonium salt, Maduramicin]
Effectiveness compared with 0.5 ppm nitrapyrin, in words (Nitrosomonas spp.; 0.10 ppm): not as effective as the 0.5 ppm rate of nitrapyrin
Concentration of nitrate nitrogen (Nitrosomonas spp.; 0.10 ppm, week 0): 18 PPM
Recovery of Ammonium Nitrogen (Nitrosomonas spp.; 0.10 ppm, week 0): 195 PPM
Concentration of nitrate nitrogen (Nitrosomonas spp.; 0.10 ppm, week 1): 20 PPM
Recovery of Ammonium Nitrogen (Nitrosomonas spp.; 0.10 ppm, week 1): 168 PPM
Concentration of nitrate nitrogen (Nitrosomonas spp.; 0.10 ppm, week 2): 19 PPM
Recovery of Ammonium Nitrogen (Nitrosomonas spp.; 0.10 ppm, week 2): 178 PPM
Concentration of nitrate nitrogen (Nitrosomonas spp.; 0.10 ppm, week 4): 24 PPM
Recovery of Ammonium Nitrogen (Nitrosomonas spp.; 0.10 ppm, week 4): 176 PPM
Concentration of nitrate nitrogen (Nitrosomonas spp.; 0.10 ppm, week 7): 75 PPM
Recovery of Ammonium Nitrogen (Nitrosomonas spp.; 0.10 ppm, week 7): 125 PPM
Concentration of nitrate nitrogen (Nitrosomonas spp.; 0.10 ppm, week 9): 59 PPM
Recovery of Ammonium Nitrogen (Nitrosomonas spp.; 0.10 ppm, week 9): 110 PPM
Concentration of nitrate nitrogen (Nitrosomonas spp.; 0.10 ppm, week 12): 152 PPM
Recovery of Ammonium Nitrogen (Nitrosomonas spp.; 0.10 ppm, week 12): 55 PPM
Concentration of nitrate nitrogen (Nitrosomonas spp.; 0.10 ppm, week 16): 153 PPM
Recovery of Ammonium Nitrogen (Nitrosomonas spp.; 0.10 ppm, week 16): 67 PPM
Concentration of nitrate nitrogen (Nitrosomonas spp.; 0.10 ppm, week 20): 134 PPM
Recovery of Ammonium Nitrogen (Nitrosomonas spp.; 0.10 ppm, week 20): 39 PPM
Specific inhibition of nitrification through activity against Nitrosomonas spp., in words (Nitrosomonas spp.; 0.1 to 0.5 ppm): appear to specifically inhibit nitrification through activity against Nitrosomonas spp.
Concentration of nitrate nitrogen (Nitrosomonas spp.; 0.25 ppm, week 0): 19 PPM
Recovery of Ammonium Nitrogen (Nitrosomonas spp.; 0.25 ppm, week 0): 194 PPM
Concentration of nitrate nitrogen (Nitrosomonas spp.; 0.25 ppm, week 1): 18 PPM
Recovery of Ammonium Nitrogen (Nitrosomonas spp.; 0.25 ppm, week 1): 162 PPM
Concentration of nitrate nitrogen (Nitrosomonas spp.; 0.25 ppm, week 2): 19 PPM
Recovery of Ammonium Nitrogen (Nitrosomonas spp.; 0.25 ppm, week 2): 164 PPM
Concentration of nitrate nitrogen (Nitrosomonas spp.; 0.25 ppm, week 4): 19 PPM
Recovery of Ammonium Nitrogen (Nitrosomonas spp.; 0.25 ppm, week 4): 187 PPM
Concentration of nitrate nitrogen (Nitrosomonas spp.; 0.25 ppm, week 7): 21 PPM
Recovery of Ammonium Nitrogen (Nitrosomonas spp.; 0.25 ppm, week 7): 198 PPM
Concentration of nitrate nitrogen (Nitrosomonas spp.; 0.25 ppm, week 9): 25 PPM
Recovery of Ammonium Nitrogen (Nitrosomonas spp.; 0.25 ppm, week 9): 185 PPM
Concentration of nitrate nitrogen (Nitrosomonas spp.; 0.25 ppm, week 12): 23 PPM
Recovery of Ammonium Nitrogen (Nitrosomonas spp.; 0.25 ppm, week 12): 192 PPM
Concentration of nitrate nitrogen (Nitrosomonas spp.; 0.25 ppm, week 16): 64 PPM
Recovery of Ammonium Nitrogen (Nitrosomonas spp.; 0.25 ppm, week 16): 164 PPM
Concentration of nitrate nitrogen (Nitrosomonas spp.; 0.25 ppm, week 20): 85 PPM
Recovery of Ammonium Nitrogen (Nitrosomonas spp.; 0.25 ppm, week 20): 102 PPM
Time through which nitrification is delayed or inhibited (Nitrosomonas spp.; 0.5 ppm): ≥ 20 weeks
Concentration of nitrate nitrogen (Nitrosomonas spp.; 0.50 ppm, week 0): 18 PPM
Recovery of Ammonium Nitrogen (Nitrosomonas spp.; 0.50 ppm, week 0): 194 PPM
Concentration of nitrate nitrogen (Nitrosomonas spp.; 0.50 ppm, week 1): 20 PPM
Recovery of Ammonium Nitrogen (Nitrosomonas spp.; 0.50 ppm, week 1): 162 PPM
Concentration of nitrate nitrogen (Nitrosomonas spp.; 0.50 ppm, week 2): 18 PPM
Recovery of Ammonium Nitrogen (Nitrosomonas spp.; 0.50 ppm, week 2): 166 PPM
Concentration of nitrate nitrogen (Nitrosomonas spp.; 0.50 ppm, week 4): 21 PPM
Recovery of Ammonium Nitrogen (Nitrosomonas spp.; 0.50 ppm, week 4): 170 PPM
Concentration of nitrate nitrogen (Nitrosomonas spp.; 0.50 ppm, week 7): 21 PPM
Recovery of Ammonium Nitrogen (Nitrosomonas spp.; 0.50 ppm, week 7): 194 PPM
Concentration of nitrate nitrogen (Nitrosomonas spp.; 0.50 ppm, week 9): 25 PPM
Recovery of Ammonium Nitrogen (Nitrosomonas spp.; 0.50 ppm, week 9): 193 PPM
Concentration of nitrate nitrogen (Nitrosomonas spp.; 0.50 ppm, week 12): 18 PPM
Recovery of Ammonium Nitrogen (Nitrosomonas spp.; 0.50 ppm, week 12): 189 PPM
Concentration of nitrate nitrogen (Nitrosomonas spp.; 0.50 ppm, week 16): 28 PPM
Recovery of Ammonium Nitrogen (Nitrosomonas spp.; 0.50 ppm, week 16): 209 PPM
Concentration of nitrate nitrogen (Nitrosomonas spp.; 0.50 ppm, week 20): 44 PPM
Recovery of Ammonium Nitrogen (Nitrosomonas spp.; 0.50 ppm, week 20): 175 PPM
Effectiveness as nitrification inhibitor, in words (Nitrosomonas spp.; X-14868A monammonium salt): most effective nitrification inhibitor
Effectiveness as nitrification inhibitor, in words (Nitrosomonas spp.; X-14868 monoammonium salt): considerably more effective than nitrapyrin
Yield at the sandy loam location, in words (corn (Pioneer 3352); 0.56 kg a.i./hectare, both rates of NH3 and the lower rate of urea): significantly higher
AVERAGE YIELD 4-REPLICATES (corn (Pioneer 3352); N 84 kg/ha as NH3, chemical 0.11 kg/ha): 155.7 HECTOLITERS/HECTARE
AVERAGE YIELD 4-REPLICATES (corn (Pioneer 3352); N 84 kg/ha as NH3, chemical 0.28 kg/ha): 159.2 HECTOLITERS/HECTARE
AVERAGE YIELD 4-REPLICATES (corn (Pioneer 3352); N 84 kg/ha as NH3, chemical 0.56 kg/ha): 165.3 HECTOLITERS/HECTARE
AVERAGE YIELD 4-REPLICATES (corn (Pioneer 3352); N 168 kg/ha as NH3, chemical 0.11 kg/ha): 163.6 HECTOLITERS/HECTARE
AVERAGE YIELD 4-REPLICATES (corn (Pioneer 3352); N 168 kg/ha as NH3, chemical 0.28 kg/ha): 174.9 HECTOLITERS/HECTARE
AVERAGE YIELD 4-REPLICATES (corn (Pioneer 3352); N 168 kg/ha as NH3, chemical 0.56 kg/ha): 176.6 HECTOLITERS/HECTARE

— patent publication US4746349A, “Method and compositions for suppressing the nitrification of ammonium in plant growth medium” (American Cyanamid Company, priority 1986, dated 1988)
